This note sets out measurements from patent US12209092B2, “Inhibitors of GLI1 as therapeutic agents” (NEW YORK UNIVERSITY, priority 2018, dated 2025).

pIC50: −log10 of the molar value. Where two headings read alike, the source gives them in different places.

The test relates to Gli1-mediated transcription. As to the kind of experiment: Gli1-mediated transcriptional luciferase reporter assay. The conditions noted are these: Shh-LIGHT2 cells, antagonist mode, purmorphamine 1.5 μM stimulation, 24 h. The format is cell-based. The procedure:
Gli1-mediated transcriptional luciferase reporter assay was performed using Shh-LIGHT2 cells in order to evaluate the effects on activation and inhibition of Gli1-mediated transcription by the compounds of the disclosure. Brief assay procedure is provided below. […] Shh-LIGHT2 cells were harvested from about 80% confluent 10-cm dish using 0.25% Trypsin-EDTA solution. Medium was removed, and cells were washed with 5 mL DPBS and aspirated. Then, 1 mL 0.25% Trypsin-EDTA solution was added to a 10-cm dish. The dish was placed in the incubator for 1-3 minutes, or until cells have detached. 3 mL of cell growth medium (DMEM, 10% FBS, 1% PenStrep, 1% sodium pyruvate, and 1% GlutaMax) was added to the 10-cm dish, and the contents were transferred to a conical tube. […] The cell assay plate was removed from incubator after cells reached confluency. The culture medium was then manually removed from the cell plates, and the plates were centrifuged at 200 rpm for 30 seconds. […] After 30 min incubation of antagonist, cells were stimulated with agonist (purmorphamine, 5 μL, 1.5 μM final), then incubate for 24 h at 37° C./5% CO2. […] Luciferase assay: After incubation, the cell assay plate was allowed to acclimate to room temperature. Then, 20 μL of Duo-Glo® Luciferase Reagent (Promega) was added to each well of cell assay plate. The plate was briefly spun down, mixed, and incubated for 30 minutes at room temperature. The cell plate was read using luminometer for firefly luminescence activity. Then, 20 μL of Duo-Glo® Step&Glo® Reagent (Promega) was added to each well of cell assay plate. The plate was briefly spun down, mixed, and incubated for 30 minutes at room temperature. The cell plate was read using luminometer for Renilla luminescence activity. Ratio of firefly: Renilla luminescence was calculated for each well. The compound well ratio was normalized to the ratio from a control well.
Background: A reporter such as luciferase makes a cellular process visible.

[1] abbreviates: firefly luminescence, read-out: Gli1 IC50 firefly.
[2] abbreviates: ratio of firefly:Renilla luminescence, read-out: Gli1 IC50 firefly:Renilla ratio.

For the compound `Cn1c(-c2ccccc2Cl)nc2c1CC(N1CCc3cccc(Cl)c3C1)CC2` (stereo not drawn) [Example 187, 8-chloro-2-(2-(2-chlorophenyl)-1-methyl-4,5,6,7-tetrahydro-1H-benzo[d]imidazol-6-yl)-1,2,3,4-tetrahydroisoquinoline], the pIC50 is greater than 7.00 under setting [1] and greater than 7.00 under setting [2].

Regarding `Clc1ccccc1-c1nc2c([nH]1)CN(C1CCc3cc(C4CC4)ccc3C1)CC2` (stereo not drawn) [Example 31, 2-(2-chlorophenyl)-5-(6-cyclopropyl-1,2,3,4-tetrahydronaphthalen-2-yl)-4,5,6,7-tetrahydro-3H-imidazo[4,5-c]pyridine], the pIC50 is 4.30 to 6.00 under setting [1] and 6.00 to 6.30 under setting [2].

Regarding `Clc1ccccc1-c1nc2c([nH]1)CN(C1CCc3ccc(C#CC4CC4)cc3C1)CC2` (stereo not drawn) [Example 35, 2-(2-chlorophenyl)-5-(7-(cyclopropylethynyl)-1,2,3,4-tetrahydronaphthalen-2-yl)-4,5,6,7-tetrahydro-3H-imidazo[4,5-c]pyridine], the pIC50 was 4.30 to 6.00 under setting [1] and 4.30 to 6.00 under setting [2].

As to `Cn1c(-c2ccccc2Cl)nc2c1CN(C1CCc3cccc(C4CC4)c3C1)CC2` (stereo not drawn) [Example 161, 2-(2-chlorophenyl)-5-(8-cyclopropyl-1,2,3,4-tetrahydronaphthalen-2-yl)-3-methyl-4,5,6,7-tetrahydro-3H-imidazo[4,5-c]pyridine], the pIC50 by setting is: under setting [1], 6.31 to 7.00; under setting [2], 6.31 to 7.00.

On to `Cn1c(-c2ccc(C3CC3)cc2Cl)nc2c1CCN(C1CCc3ccc(Cl)cc3C1)C2` (stereo not drawn) [Example 164, 5-(7-chloro-1,2,3,4-tetrahydronaphthalen-2-yl)-2-(2-chloro-4-cyclopropylphenyl)-1-methyl-4,5,6,7-tetrahydro-1H-imidazo[4,5-c]pyridine], for which the pIC50 reads like this: under setting [1], 6.31 to 7.00; under setting [2], 6.31 to 7.00.

For `Clc1ccccc1-c1nc2c([nH]1)CN(C1CCc3cccc(Cl)c31)CC2` (stereo not drawn) [Example 106, 5-(7-chloro-2,3-dihydro-1H-inden-1-yl)-2-(2-chlorophenyl)-4,5,6,7-tetrahydro-3H-imidazo[4,5-c]pyridine], the pIC50 was 4.30 to 6.00 under setting [1] and 4.30 to 6.00 under setting [2].

With `Clc1cccc(-c2nc3c([nH]2)CN(C2CCc4ccc(Cl)cc4C2)CC3)c1` (stereo not drawn) [Example 42, 5-(7-chloro-1,2,3,4-tetrahydronaphthalen-2-yl)-2-(3-chlorophenyl)-4,5,6,7-tetrahydro-3H-imidazo[4,5-c]pyridine], the pIC50 is, setting by setting: under setting [1], 4.30 to 6.00; under setting [2], 4.30 to 6.00.

Regarding `Cn1c(-c2ccccc2Cl)nc2c1CCC(N1CCc3cccc(Cl)c3C1)C2` (stereo not drawn) [Example 188, 8-chloro-2-(2-(2-chlorophenyl)-1-methyl-4,5,6,7-tetrahydro-1H-benzo[d]imidazol-5-yl)-1,2,3,4-tetrahydroisoquinoline], the pIC50 by setting is: under setting [1], greater than 7.00; under setting [2], greater than 7.00.

On to `Clc1cccc2c1CC(N1CCc3nc(-c4ccccn4)[nH]c3C1)CC2` (stereo not drawn) [Example 78, 5-(8-chloro-1,2,3,4-tetrahydronaphthalen-2-yl)-2-(pyridin-2-yl)-4,5,6,7-tetrahydro-3H-imidazo[4,5-c]pyridine], for which the pIC50 was 4.30 to 6.00 under setting [1] and 4.30 to 6.00 under setting [2].

`COc1ccc2c(c1)CC(N1CCc3nc(-c4ccccc4F)[nH]c3C1)CC2` (stereo not drawn) [Example 8, 2-(2-fluorophenyl)-5-(7-methoxy-1,2,3,4-tetrahydronaphthalen-2-yl)-4,5,6,7-tetrahydro-3H-imidazo[4,5-c]pyridine]: the pIC50 runs as follows: under setting [1], 4.30 to 6.00; under setting [2], 4.30 to 6.00.

On to `Fc1ccc2c(c1)CC(N1CCc3nc(-c4ccccc4F)[nH]c3C1)CC2` (stereo not drawn) [Example 5, 5-(7-fluoro-1,2,3,4-tetrahydronaphthalen-2-yl)-2-(2-fluorophenyl)-4,5,6,7-tetrahydro-3H-imidazo[4,5-c]pyridine], for which the pIC50 reads like this: under setting [1], 4.30 to 6.00; under setting [2], 4.30 to 6.00.

With `COc1ccc(-c2nc3c([nH]2)CN(C2CCc4ccc(Cl)cc4C2)CC3)c(Cl)c1` (stereo not drawn) [Example 23, 5-(7-chloro-1,2,3,4-tetrahydronaphthalen-2-yl)-2-(2-chloro-4-methoxyphenyl)-4,5,6,7-tetrahydro-3H-imidazo[4,5-c]pyridine], the pIC50 by setting is: under setting [1], greater than 7.00; under setting [2], greater than 7.00.

Consider `Clc1ccccc1-c1nc2c([nH]1)CN([C@@H]1CCc3cccc(Cl)c3C1)CC2` [Example 1-R, (R)-5-(8-chloro-1,2,3,4-tetrahydronaphthalen-2-yl)-2-(2-chlorophenyl)-4,5,6,7-tetrahydro-3H-imidazo[4,5-c]pyridine], for which the pIC50 is 6.31 to 7.00 under setting [1] and 6.31 to 7.00 under setting [2].

As for `Clc1ccc2c(c1)CC(N1CCc3nc(-c4ccc(C5CC5)cc4Cl)[nH]c3C1)CC2` (stereo not drawn) [Example 37, 5-(7-chloro-1,2,3,4-tetrahydronaphthalen-2-yl)-2-(2-chloro-4-cyclopropylphenyl)-4,5,6,7-tetrahydro-3H-imidazo[4,5-c]pyridine], the pIC50 is greater than 7.00 under setting [1] and greater than 7.00 under setting [2].

Turning to `O[C@@H]1Cc2ccccc2C[C@H]1N1CCc2nc(-c3ccccc3Cl)[nH]c2C1` [Example 20, (2R,3R)-3-(2-(2-chlorophenyl)-3,4,6,7-tetrahydro-5H-imidazo[4,5-c]pyridin-5-yl)-1,2,3,4-tetrahydronaphthalen-2-ol], the pIC50 reads like this: under setting [1], 4.30 to 6.00; under setting [2], 4.30 to 6.00.
